According to a melting point compilation (Tetko et al.; mined from patent text by program, amines drawn as free bases though some values may be those of a salt):

Row | melting point [°C] | Structure (SMILES)
1 | 140 to 145 | CCC1C(=O)Nc2c(C(=O)c3ccc(Cl)cc3)cccc21 (stereo not drawn)
2 | 189 | CCOC(=O)C(O)=CC=C(C#N)c1ccccc1
3 | 218 to 220 | COc1c(O)c(C)c2c(c1OC)Nc1ccccc1S2
4 | 75 to 77 | CCCCCCCCCCCCCCOc1cc(OCCCCCCc2cccc(OCc3ccccc3)c2OCc2ccccc2)cc(C(=O)O)c1
5 | 75 | C1CNCCN2CCNCCNCCN(CCN1)CCOCCOCC2
6 | 214 to 216 | Cc1c(-c2ccc(=O)[nH]c2)cccc1[N+](=O)[O-]
7 | 113 to 114 | COC(=O)CC(C#N)c1cccc2ccc(OC)cc12 (stereo not drawn)
8 | 216 to 217 | O=C(Nc1ccc2c(c1)CCNO2)c1cc2cc(F)ccc2n1Cc1cccc(F)c1
9 | 193 | Cc1csc2nc(Sc3ccccc3NC(=O)N[C@@H](Cc3ccc(NC(=O)c4c(Cl)cncc4Cl)cc3)C(=O)O)cnc12
10 | > 260 | C[C@]12CCC(=O)N[C@@H]1CCc1cc(Sc3cccc4cccnc34)ccc12
11 | 170 to 172 | OCC1=C(c2cc3c(Cl)cccc3s2)N2CCN=C2S1
12 | 203 to 204 | COc1cc2ncnc(N3CCC(O)(CCN4C=CC(C)=NS4(=O)=O)CC3)c2cc1OC
13 | 90.5 to 92 | Cc1cc(C(O)(C(F)(F)Cl)C(F)(F)Cl)cc(C)c1O
14 | 228 to 229 | O=C1Nc2ccc(-c3cc(F)cc(Br)c3)cc2C(C2CC2)(C2CC2)O1
15 | 124 to 128 | Cc1cccc(C)c1C(c1cccc2ccccc12)C(C#N)C(=O)OC(C)(C)C (stereo not drawn)
16 | 166 | O=C(NO)[C@H](CNS(=O)(=O)c1ccc(OCc2ccc(Cl)c(Cl)c2)cc1)N1CCCCC1
17 | 106 to 108 | COC(=O)c1ccc(C#Cc2ccccc2F)o1
18 | 150 to 153 | Cc1nnc(-c2ccccc2F)n2nc(OCc3ncnn3C)c(-c3ccoc3)c12
19 | 158 to 160 | CSc1ccc(C(=O)O)cc1OC1CCCC1
20 | 161 to 163 | O=C(O)C1Cc2[nH]c3ccc(OCc4ccccc4)cc3c2C1 (stereo not drawn)
21 | 95 to 97 | CC(C)c1nsc(N=CN(C)C)c1C#N
22 | 220 to 222 | CCn1cc(C(=O)O)c(=O)c2c(F)c(F)c(N3CCNC(C)C3)c(F)c21 (stereo not drawn)
23 | 88 to 89 | COC1(Cl)C=CC=CC1Oc1c(Cl)ncnc1Cl (stereo not drawn)
24 | 107 to 109 | CCCOC(=O)c1cccc2c1S[C@@H](c1ccc(OC)cc1)[C@@H](OC(C)=O)C(=O)N2CCN(C)C (racemic)

Row | melting point [°C] | Structure (SMILES)
25 | 149 to 152 | Cc1cc2nc(C)n(COC(=O)C(C)(C)C)c(=O)c2cc1CBr
26 | 51.6 | CCCCCCCCOC(=O)Oc1ccc(-c2ccc(C#N)cc2)cc1
27 | 94 to 95 | CC(C)(C)c1ccc(O)c(S(=O)(=O)CCl)c1
28 | 204 to 209 | O=c1c(Cc2cccnc2)cn2c3cc(F)ccc3c3cc(OCCCO)cc1c32
29 | 75 to 76 | CCCCNc1ccn2nccc2n1
30 | 73 to 76 | Clc1ncc(OCc2ccsc2)cn1
31 | 120 to 121 | CC(=O)ON(C)C(=O)/C=C/c1ccc(-n2c(C)ccc2C)cc1
32 | 80 | CCOC(=O)NC(=S)SCc1ccc(Cl)cc1
33 | 114 to 115 | CCOC(=O)CCCc1sc(N)nc1-c1ccc(Cl)cc1
34 | 147 | N#Cc1ccc(S(=O)(=O)N2CCCC2c2ccc(F)cc2)cc1 (racemic)
35 | 133 to 136 | CCN(c1ccc(Cl)cc1)c1cc(NC)nc(C)n1
36 | 119 | CS(=O)(=O)c1ccc(-n2cncc2-c2ccc(F)cc2F)cc1
37 | 87 to 88 | COC(=O)CCc1conc1-c1ccc(Cl)c(Cl)c1
38 | 69 to 72 | CNC(=O)c1cccnc1C
39 | 157 to 159 | N=C(N)NCCCOc1ccc2c(c1)NC(=O)C(CCC(=O)O)C2 (stereo not drawn)
40 | 122 to 123 | Cc1ccccc1-n1c(C)nc2cscc2c1=O
41 | 178 to 180 | COC(=O)c1ccc(C(C(N)=O)C(C)c2cc([N+](=O)[O-])ccc2N2CCCCC2)cc1 (stereo not drawn)
42 | 181 to 183 | Cc1sc(C(=O)NCc2ccc3c(c2)OCO3)cc1[N+](=O)[O-]
43 | 169 to 170 | Cc1c2n(c(=O)c3c(O)cccc13)CCCS2=O (stereo not drawn)
44 | 126 to 127 | ClCc1cn2c(-c3ccccc3)cccc2n1
45 | 269 to 271 | CCn1nc2c(N)nc3ccccc3c2c1CC1(F)CCN(S(C)(=O)=O)CC1
46 | 217 to 219 | COc1ccc(Cl)cc1-c1c(NCn2nnc3ccccc32)c(=O)[nH]c2ccc(C(F)(F)F)cc12
47 | 173 | FC(F)(F)c1cccc(N2CCC(N=Cc3cccc4ccccc34)=N2)c1
48 | 128 to 129 | CCC1(CC)COP(=O)(Cc2ccc(N)cc2)OC1

Row | melting point [°C] | Structure (SMILES)
49 | 138 | CC(C)C(N)CN1CCC(Nc2nc3ccccc3[nH]2)CC1 (stereo not drawn)
50 | 98.5 to 102 | Cc1ccccc1C(=O)N(c1ccccc1)c1ccc(OCCN(C)C)cc1
51 | 219 to 220 | NC(=O)Cc1ccc(-c2csc(N=C(N)N)n2)o1
52 | 134 to 136 | CCOC(=O)Cc1c(CCc2ccc(O)cc2)oc2ccc(C#N)cc12
53 | 153 to 155 | Cc1ncn(-c2ccc(NC(=O)OCc3ccccc3)cc2F)n1
54 | 190 to 192 | CCc1nc2c(N)nc(C)c(C)c2n1NC1CCCCC1
55 | 247 to 249 | COc1cc2c(=O)c(Cc3cccnc3)cn3c4cc(Br)ccc4c(=O)c(c1)c23
56 | 120 to 121 | Cn1cnc(=O)c(-c2cccc(Br)c2)c1
57 | 203 to 205 | NC(=O)[C@@H]1[C@H](Nc2c(Cl)cnc3[nH]c(-c4cnn(C5CCNCC5)c4)nc23)[C@H]2C=C[C@@H]1C2
58 | 177 to 179 | COc1ccccc1Oc1c(Cl)nc(-c2ccncc2)nc1NS(=O)(=O)c1ccc(C)cn1
59 | 143 to 144 | COc1cc(COc2nc(-c3ccccc3)ncc2C=O)ccc1OCc1nc(-c2ccco2)oc1C
60 | 180 to 182 | O=C(O)c1cccnc1Cc1ccccc1
61 | 145 | CC(=O)Nc1cc(CO)ccn1
62 | 147 to 149 | COc1ccccc1N1CCN(CCCC2(c3ccc(F)cc3)OCc3cc(C#N)ccc32)CC1 (stereo not drawn)
63 | 192 to 195 | CS(=O)(=O)c1cccc(S(C)(=O)=O)n1
64 | 179 | O=c1oc(C(Cl)Cl)nc2c(C(F)(F)F)cccc12
65 | 88 to 89 | NC[C@@H]1C[C@@H](SC(c2ccccc2)(c2ccccc2)c2ccccc2)CN1S(=O)(=O)c1ccc2ccccc2c1
66 | 150 to 152 | COc1ccc2[nH]c(C(=NO)c3ccccc3)cc2c1
67 | > 250 | CC(C)C1=C(C#N)C(c2ccccc2Br)c2c(n[nH]c2CC#N)N1 (stereo not drawn)
68 | 129 | CCOC(=O)C1=C(N(C)C)N=C(C)C(C(=O)OCC)C1c1ccccc1C#N (stereo not drawn)
69 | 80 | [N-]=[N+]=NC1CC(n2cc(I)c(=O)[nH]c2=O)OC1C(O)C(c1ccccc1)(c1ccccc1)c1ccccc1 (stereo not drawn)
70 | 198 | CCCCn1c(=O)n2cnnc2c2[nH]c(-c3cc(S(=O)(=O)N4CC(CN(C)C)C4)ccc3OCCC)nc21
71 | 192 to 194 | COc1cc(C(=O)Nc2ccc(N3CCOCC3)cc2C(C)=O)ccc1OCc1ccccc1

Row | Structure (SMILES) | melting point [°C]
72 | O=C1c2c(O)cccc2C(SCC(O)CO)c2cccc(O)c21 (stereo not drawn) | 154 to 155
73 | COc1cc(C(=O)N2CC2C#N)cc(OC)c1OC (stereo not drawn) | 86 to 89
